Test [1] concerns the target NLRP3 inflammasome (Mus musculus, UniProt Q8R4B8). In words: NLRP3 inflammasome activation in LPS primed BMDMs (caspase-1 / IL-1β immunoblot). Details: endogenous in cells; host or cells: mouse bone marrow derived macrophages (A1). It is filed as cell-based. The settings on record: for effect on BHB's suppressive effects on ATP-induced NLRP3 inflammasome activation: co-treatment with BHB; for ATP-induced NLRP3 activation: BMDMs stimulated with LPS and ATP, caspase-1 immunoblot (FIG. 1B); for induction of caspase-1 cleavage by ROS damage: rotenone (10 μM) or hydrogen peroxide.
Procedure: All steps were performed using sterile technique. Femurs were collected in RPMI (Life Technologies, Grand Island, N.Y.)+5% FBS (R5; Omega Scientific, Tarzana, Calif.). Both ends of the femur were then cut and the femur was flushed with R5. The bone marrow was centrifuge at 450 g for 5 min, the supernatant was decanted and red blood cells were lysed using ACK lysis buffer (Quality Biological, Gaithersburg, Md.). After neutralization with R5, bone marrow cells were centrifuged, resuspended in 10 ml of R5 and placed into a 6 well plate. Non-adherent cells were collected the following morning. The non-adherent cells were resuspended at 4×10^6 cells/ml in media consisting of 10 ml supernatant of non-adherent cells, 7.2 ml L929 conditioned media, 6.8 ml R5 and MCSF (long/ml; R&D Systems, Minneapolis, Minn.). An additional 2 ml of fresh media was added 4 d after isolation. Non-adherent cells were collected on day 7, separated by density gradient separation using Fico/Lite (Atlanta Biologicals, Flowery Branch, Ga.) and mononuclear cells were collected. Cells were rinsed twice with Dulbecco's PBS+2% FBS, and resuspended at 1×10^6 cells/ml. Cells were treated with ultrapure LPS (Invivogen, San Diego, Calif.) alone or in combination with 5 mM ATP (Sigma, St. Louis, Mo.) or 200 μM palmitate-BSA (Sigma). The BMDMs were also primed with ultrapure lipid A (10 μg/ml; Invivogen, San Diego, Calif.), lipoteichoic acid (10 μg/ml; Invivogen), or Pam3-CSK4 (10 μg/ml; Invivogen) for 4 hour and stimulated with various NLRP3 activators (ATP 5 mM; Sigma, MSU 250 ug/ml; Invivogen, Silica; 200 ug/ml; Invivogen, sodium palmitate; 200 μM; Sigma, ceramide C6 80 μg/ml; Cayman, and sphingosine 40 μM; Cayman, Ann Arbor, Mich.) for 1 hour together with D-BHB or L-(BHB) at indicated concentration. The cell supernatants and cell lysates were collected 1 h after BHB treatment and analyzed for caspase-1 and IL-1β.
The BMDM cell lysates were prepared using RIPA buffer and immediately snap frozen in liquid nitrogen. Samples were left on ice for 1 hour with vortexing every 10 min. Samples were then centrifuge at 14,000 g for 15 min, the supernatant was collected and the protein concentration was determined using the DC Protein Assay (Bio-RAD). […] The immune complexes were visualized by incubation with horseradish peroxidase-conjugated anti-rat or anti-rabbit secondary antibody (Amersham Biosciences). Immunoreactive bands were visualized by enhanced chemiluminescence (PerkinElmer Life Sciences).

For test [2], the system named is Gpr109a. The settings on record: Taggart et al., 2005; cited from earlier work.
Setting [3] is: WT and Gpr109a−/− BMDMs stimulated with LPS and ATP.

Consider 13 compounds from patent US20180008629A1, “Compositions and Methods for Treating NLRP3 Inflammasome-Related Diseases and Disorders” (priority 2015, published 2018).

NLRP3 inflammasome, sequence (Q8R4B8 whole entry): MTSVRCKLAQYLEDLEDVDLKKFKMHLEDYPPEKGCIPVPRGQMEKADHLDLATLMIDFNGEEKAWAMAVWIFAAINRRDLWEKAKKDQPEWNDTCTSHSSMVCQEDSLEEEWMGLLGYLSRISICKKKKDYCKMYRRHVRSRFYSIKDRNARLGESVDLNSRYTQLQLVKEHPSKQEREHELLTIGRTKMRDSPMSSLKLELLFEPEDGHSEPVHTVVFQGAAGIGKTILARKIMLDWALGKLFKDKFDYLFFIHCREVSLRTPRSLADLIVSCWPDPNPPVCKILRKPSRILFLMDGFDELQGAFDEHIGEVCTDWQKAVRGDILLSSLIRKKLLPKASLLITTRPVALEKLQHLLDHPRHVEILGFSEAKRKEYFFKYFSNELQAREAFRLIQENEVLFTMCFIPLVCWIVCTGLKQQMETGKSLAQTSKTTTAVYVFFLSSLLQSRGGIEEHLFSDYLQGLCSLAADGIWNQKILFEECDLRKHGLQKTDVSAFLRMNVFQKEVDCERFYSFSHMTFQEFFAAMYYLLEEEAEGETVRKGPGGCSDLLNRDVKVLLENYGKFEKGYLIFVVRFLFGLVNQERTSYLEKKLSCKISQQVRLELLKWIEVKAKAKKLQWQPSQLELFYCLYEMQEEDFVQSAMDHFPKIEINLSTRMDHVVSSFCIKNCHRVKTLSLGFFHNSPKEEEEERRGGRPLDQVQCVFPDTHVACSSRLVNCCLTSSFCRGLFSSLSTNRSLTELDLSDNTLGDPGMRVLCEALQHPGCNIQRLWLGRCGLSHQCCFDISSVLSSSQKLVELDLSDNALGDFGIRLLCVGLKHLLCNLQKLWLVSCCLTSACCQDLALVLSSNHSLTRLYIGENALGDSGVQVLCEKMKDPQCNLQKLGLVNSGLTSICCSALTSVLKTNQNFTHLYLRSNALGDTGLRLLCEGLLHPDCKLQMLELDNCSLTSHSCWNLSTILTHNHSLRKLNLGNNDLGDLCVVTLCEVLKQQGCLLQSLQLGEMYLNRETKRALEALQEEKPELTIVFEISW

As to `O=CC[C@@H](O)[C@H](O)[C@H](O)CO` [2DG, 2-deoxyglucose, reference compound], the “mimicking of BHB's anti-inflammasome effect by inhibition of glycolysis” value in test [1] (LPS primed BMDMs, ATP, 2-deoxyglucose (1 mM)) is listed as “did not mimic”. Regarding `Cn1cnc(N)c2ncnc1-2` [3-methyladenine, reference compound], the “effect on BHB's suppressive effects on ATP-induced NLRP3 inflammasome activation” value (from here on “effect on BHB's suppressive effects”) in test [1] (LPS primed BMDMs, ATP) was “did not abrogate”. `C[C@H](O)CC(=O)O` [(S)-BHB, (S)-3-hydroxybutyric acid]: the “NLRP3 inflammasome activation (Nlrp3 induced caspase-1 activation)” value in test [1] (BMDMs (FIG. 6E)) is reported as “efficiently blocked”. For the same compound, in test [1] (setting [3]), the anti-inflammasome activity result is reported as “retains anti-inflammasome activity similar to bioactive D-(BHB)” and the “requirement of Gpr109a to block NLRP3” value is “does not require”. Also, the “binding to Gpr109a” value in test [2] is listed as “high affinity”. Take `N#C/C(=C\c1ccc(-c2cc(Cl)ccc2Cl)o1)C(=O)Nc1cccc2ncccc12` [AGK2, reference compound]: the “effect on BHB's suppressive effects” value in test [1] (LPS primed BMDMs, ATP) was “did not abrogate”.

As for `NC(=O)c1ccc[n+]([C@@H]2O[C@H](COP(=O)([O-])OP(=O)(O)OC[C@H]3O[C@@H](n4cnc5c(N)ncnc54)[C@H](O)[C@@H]3O)[C@@H](O)[C@H]2O)c1` [NAD^+, reference compound], the “caspase-1 activation in response to LPS and ATP” value in test [1] (BMDMs, NAD+ (10 μM)) was “did not block”. Consider `CC(=O)O` [acetate, reference compound], for which, in test [1] (10 mM), the “ATP-induced NLRP3 activation” value is given as “did not affect”. With `CC(=O)CC(=O)O` [acetoacetate, reference compound], in test [1] (10 mM), the “ATP-induced NLRP3 activation” value is “did not affect”. The “effect on the NLRP3 inflammasome” value in test [1] (control and Gpr109a deficient BMDMs, LPS and ATP, 10 mM) was “neither butyrate nor acetoacetate affect”. On to `NOCC(=O)O` [aminoxyacetate, reference compound], for which the “effect on BHB's suppressive effects” value in test [1] (LPS primed BMDMs, ATP) is listed as “did not affect”. On the same count and under the same terms, with `CC[C@H](C)[C@H](NC(=O)[C@H]([C@@H](C)CC)N(C)C(C)=O)C(=O)N[C@H](C(=O)N[C@@H](CC(C)C)C(=O)[C@@]1(C)CO1)[C@@H](C)O` [epoxomicin, reference compound] the entry was “did not abrogate”.

Consider `OO` [hydrogen peroxide, reference compound], for which the “effect on BHB's suppressive effects” value in test [1] (LPS primed BMDMs, ATP) is on record as “did not prevent”. The “induction of caspase-1 cleavage by ROS damage” value in test [1] (LPS primed BMDMs) is “not sufficient to induce”.

Take `O=C(O)c1cccnc1` [niacin, reference compound]: the “NLRP3 inflammasome activation with GPR109a ligand” value in test [1] (BMDMs activated with LPS and ATP, niacin (1 mM)) is listed as “did not block”. `C=C(C)[C@H]1Cc2c(ccc3c2O[C@@H]2COc4cc(OC)c(OC)cc4[C@@H]2C3=O)O1` [rotenone, reference compound]: the “effect on BHB's suppressive effects” value in test [1] (LPS primed BMDMs, ATP) is on record as “did not prevent”. In test [1] (LPS primed BMDMs), the “induction of caspase-1 cleavage by ROS damage” value is listed as “not sufficient to induce”.

Turning to `CC(/C=C/C(=O)NO)=C\[C@@H](C)C(=O)c1ccc(N(C)C)cc1` [trichostatin A, reference compound], the “inflammasome activation with HDAC inhibitor” value in test [1] (LPS primed and NLRP3 agonist treated macrophages, TSA (50 nM)) was “no effects”.
